Source: article PMC6979384, “Characterization of the plant homeodomain (PHD) reader family for their histone tail interactions” (Epigenetics & Chromatin, 2020)
Where no end group is shown, it is not given here.

Legend:
Test in all cases: Histone peptide microarray
Type in all cases: binding, human
AIRE (PP) = conditions: arrays performed twice, n of 4; for Array Heatmap value (peptide array binding signal): AIRE (PP), GST-tagged
Method in brief: (§1)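 Binding of recombinant GST-fused PHD readers (0.5 μM) is detected on an array of 293 histone peptides, modified singly or in combination. An optimized array protocol is followed, and each intensity is the average of quadruplicate measurements with standard deviation.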

BAZ2B = conditions: arrays performed twice, n of 4; for Array Heatmap value (peptide array binding signal): BAZ2B, GST-tagged
Method in brief: as §1

BPTF (PB) = conditions: arrays performed twice, n of 4; for Array Heatmap value (peptide array binding signal): BPTF (PB), GST-tagged
Method in brief: as §1

CHD4 (PPCC) = conditions: arrays performed twice, n of 4; for Array Heatmap value (peptide array binding signal): CHD4 (PPCC), GST-tagged
Method in brief: as §1

CHD5 (PCC) = conditions: arrays performed twice, n of 4; for Array Heatmap value (peptide array binding signal): CHD5 (PCC), GST-tagged
Method in brief: as §1

CHD5 (PPCC) = conditions: arrays performed twice, n of 4; for Array Heatmap value (peptide array binding signal): CHD5 (PPCC), GST-tagged
Method in brief: as §1

DIDO1 = conditions: arrays performed twice, n of 4; for Array Heatmap value (peptide array binding signal): DIDO1, GST-tagged
Method in brief: as §1

DPF2 (PPC2W2) = conditions: arrays performed twice, n of 4; for Array Heatmap value (peptide array binding signal): DPF2 (PPC2W2), GST-tagged
Method in brief: as §1

ING1 = conditions: arrays performed twice, n of 4; for Array Heatmap value (peptide array binding signal): ING1, GST-tagged
Method in brief: as §1

ING2 = conditions: arrays performed twice, n of 4; for Array Heatmap value (peptide array binding signal): ING2, GST-tagged
Method in brief: as §1

ING3 = conditions: arrays performed twice, n of 4; for Array Heatmap value (peptide array binding signal): ING3, GST-tagged
Method in brief: as §1

ING4 = conditions: arrays performed twice, n of 4; for Array Heatmap value (peptide array binding signal): ING4, GST-tagged
Method in brief: as §1

ING5 = conditions: arrays performed twice, n of 4; for Array Heatmap value (peptide array binding signal): ING5, GST-tagged
Method in brief: as §1

KDM4C (TTP) = conditions: arrays performed twice, n of 4; for Array Heatmap value (peptide array binding signal): KDM4C (TTP), GST-tagged
Method in brief: as §1

KDM5A (1) = conditions: arrays performed twice, n of 4; for Array Heatmap value (peptide array binding signal): KDM5A (1), GST-tagged
Method in brief: as §1

KDM5A (3) = conditions: arrays performed twice, n of 4; for Array Heatmap value (peptide array binding signal): KDM5A (3), GST-tagged
Method in brief: as §1

KDM5B (1) = conditions: arrays performed twice, n of 4; for Array Heatmap value (peptide array binding signal): KDM5B (1), GST-tagged
Method in brief: as §1

KDM5B (3) = conditions: arrays performed twice, n of 4; for Array Heatmap value (peptide array binding signal): KDM5B (3), GST-tagged
Method in brief: as §1

KDM7A = conditions: arrays performed twice, n of 4; for Array Heatmap value (peptide array binding signal): KDM7A, GST-tagged
Method in brief: as §1

MLL5 = conditions: arrays performed twice, n of 4; for Array Heatmap value (peptide array binding signal): MLL5, GST-tagged
Method in brief: as §1

MORC3 (CW) = conditions: arrays performed twice, n of 4; for Array Heatmap value (peptide array binding signal): MORC3 (CW), GST-tagged
Method in brief: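 Binding read as mean relative signal from 4 replicates; microarray held 293 synthetic histone peptides with single or combinatorial PTMs. Each GST-tagged PHD reader was applied at 0.5 μM using the optimized Petell protocol.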

PHF13 = conditions: arrays performed twice, n of 4; for Array Heatmap value (peptide array binding signal): PHF13, GST-tagged
Method in brief: as §1

PHF21A = conditions: arrays performed twice, n of 4; for Array Heatmap value (peptide array binding signal): PHF21A, GST-tagged
Method in brief: as §1

PHF23 = conditions: arrays performed twice, n of 4; for Array Heatmap value (peptide array binding signal): PHF23, GST-tagged
Method in brief: as §1

PHF2 = conditions: arrays performed twice, n of 4; for Array Heatmap value (peptide array binding signal): PHF2, GST-tagged
Method in brief: as §1

PHF8 = conditions: arrays performed twice, n of 4; for Array Heatmap value (peptide array binding signal): PHF8, GST-tagged
Method in brief: as §1

PHRF1 (RP) = conditions: arrays performed twice, n of 4; for Array Heatmap value (peptide array binding signal): PHRF1 (RP), GST-tagged
Method in brief: as §1

RAG2 = conditions: arrays performed twice, n of 4; for Array Heatmap value (peptide array binding signal): RAG2, GST-tagged
Method in brief: as §1

SP140L = conditions: arrays performed twice, n of 4; for Array Heatmap value (peptide array binding signal): SP140L, GST-tagged
Method in brief: as §1

TAF3 = conditions: arrays performed twice, n of 4; for Array Heatmap value (peptide array binding signal): TAF3, GST-tagged
Method in brief: as §1

TRIM66 (PB) = conditions: arrays performed twice, n of 4; for Array Heatmap value (peptide array binding signal): TRIM66 (PB), GST-tagged
Method in brief: as §1

In the case of “H2AX (132-142): H2AX 132-142 (GKKATQASQEY; UniProt P16104 133-143, looked up, fragment)”, the “Array Heatmap value (peptide array binding signal)” value (shortened to “Array Heatmap value”) (AIRE (PP)) is reported as 0.4547, the “Array Heatmap value” value (BAZ2B) is reported as 0.4423 and the “Array Heatmap value” value (BPTF (PB)) is reported as 0.3256. For the same substance, the “Array Heatmap value” value (CHD4 (PPCC)) was 0.5518, the “Array Heatmap value” value (CHD5 (PCC)) was 0.733 and the “Array Heatmap value” value (CHD5 (PPCC)) was 0.5152. The “Array Heatmap value” value (DIDO1) was 0.7308, the “Array Heatmap value” value (DPF2 (PPC2W2)) was 0.6502 and the “Array Heatmap value” value (ING1) was 0.536. The “Array Heatmap value” value (ING2) was 0.621, the “Array Heatmap value” value (ING3) was 0.4477 and the “Array Heatmap value” value (ING4) was 0.4334. For the same substance, the “Array Heatmap value” value (ING5) was 0.3322, the “Array Heatmap value” value (KDM4C (TTP)) was 0.4463 and the “Array Heatmap value” value (KDM5A (1)) was 0.4587. The “Array Heatmap value” value (KDM5A (3)) was 0.478, the “Array Heatmap value” value (KDM5B (1)) was 0.6162 and the “Array Heatmap value” value (KDM5B (3)) was 0.4637. For the same substance, the “Array Heatmap value” value (KDM7A) was 0.3262, the “Array Heatmap value” value (MLL5) was 0.533 and the “Array Heatmap value” value (MORC3 (CW)) was 0.4162. The “Array Heatmap value” value (PHF13) was 0.5577, the “Array Heatmap value” value (PHF21A) was 0.4468 and the “Array Heatmap value” value (PHF23) was 0.5369. The “Array Heatmap value” value (PHF2) was 0.5225, the “Array Heatmap value” value (PHF8) was 0.3348 and the “Array Heatmap value” value (PHRF1 (RP)) was 0.3943. The “Array Heatmap value” value (RAG2) was 0.2674, the “Array Heatmap value” value (SP140L) was 0.3692 and the “Array Heatmap value” value (TAF3) was 0.2878. The “Array Heatmap value” value (TRIM66 (PB)) was 0.5363.

For “H3R2me2a + K4ac + K9ac + K14ac + K18ac: H3 1-20”, the “Array Heatmap signal, AIRE (PP)” value (AIRE (PP); GST-tagged AIRE (PP), histone peptide array) was 0.481, the “Array Heatmap signal, BAZ2B” value (BAZ2B; GST-tagged BAZ2B, histone peptide array) was 0.5184 and the “Array Heatmap signal, BPTF (PB)” value (BPTF (PB); GST-tagged BPTF (PB = PHD + Bromodomain), histone peptide array) was 0.3551. For the same substance, the “Array Heatmap signal, CHD4 (PPCC)” value (CHD4 (PPCC); GST-tagged CHD4 (PPCC = Dual PHD + Dual Chromodomain), histone peptide array) was 0.5562, the “Array Heatmap signal, CHD5 (PCC)” value (CHD5 (PCC); GST-tagged CHD5 (PCC = PHD + Dual Chromodomain), histone peptide array) was 0.8359 and the “Array Heatmap signal, CHD5 (PPCC)” value (CHD5 (PPCC); GST-tagged CHD5 (PPCC = Dual PHD + Dual Chromodomain), histone peptide array) was 0.5571. For the same substance, the “Array Heatmap signal, DIDO1” value (DIDO1; GST-tagged DIDO1, histone peptide array) was 0.6585, the “Array Heatmap signal, DPF2 (PPC2W2)” value (DPF2 (PPC2W2); GST-tagged DPF2 (PPC2W2 = Dual PHD + C2W2-type Zn-finger), histone peptide array) was 0.6307 and the “Array Heatmap signal, ING1” value (ING1; GST-tagged ING1, histone peptide array) was 0.488. The “Array Heatmap signal, ING2” value (ING2; GST-tagged ING2, histone peptide array) was 0.5976, the “Array Heatmap signal, ING3” value (ING3; GST-tagged ING3, histone peptide array) was 0.5009 and the “Array Heatmap signal, ING4” value (ING4; GST-tagged ING4, histone peptide array) was 0.4485. The “Array Heatmap signal, ING5” value (ING5; GST-tagged ING5, histone peptide array) was 0.3422, the “Array Heatmap signal, KDM4C (TTP)” value (KDM4C (TTP); GST-tagged KDM4C (TTP = Tandem Tudor domain + PHD), histone peptide array) was 0.4988 and the “Array Heatmap signal, KDM5A (1)” value (KDM5A (1); GST-tagged KDM5A (1), histone peptide array) was 0.4917. For the same substance, the “Array Heatmap signal, KDM5A (3)” value (KDM5A (3); GST-tagged KDM5A (3), histone peptide array) was 0.405, the “Array Heatmap signal, KDM5B (1)” value (KDM5B (1); GST-tagged KDM5B (1), histone peptide array) was 0.6453 and the “Array Heatmap signal, KDM5B (3)” value (KDM5B (3); GST-tagged KDM5B (3), histone peptide array) was 0.4924. For the same substance, the “Array Heatmap signal, KDM7A” value (KDM7A; GST-tagged KDM7A, histone peptide array) was 0.4047, the “Array Heatmap signal, MLL5” value (MLL5; GST-tagged MLL5, histone peptide array) was 0.5333 and the “Array Heatmap signal, MORC3 (CW)” value (MORC3 (CW); GST-tagged MORC3 (CW = CW-type Zn-finger), histone peptide array) was 0.3697. For the same substance, the “Array Heatmap signal, PHF13” value (PHF13; GST-tagged PHF13, histone peptide array) was 0.6029, the “Array Heatmap signal, PHF21A” value (PHF21A; GST-tagged PHF21A, histone peptide array) was 0.4733 and the “Array Heatmap signal, PHF23” value (PHF23; GST-tagged PHF23, histone peptide array) was 0.5405. The “Array Heatmap signal, PHF2” value (PHF2; GST-tagged PHF2, histone peptide array) was 0.4783, the “Array Heatmap signal, PHF8” value (PHF8; GST-tagged PHF8, histone peptide array) was 0.3535 and the “Array Heatmap signal, PHRF1 (RP)” value (PHRF1 (RP); GST-tagged PHRF1 (RP), histone peptide array) was 0.4078. The “Array Heatmap signal, RAG2” value (RAG2; GST-tagged RAG2, histone peptide array) was 0.259, the “Array Heatmap signal, SP140L” value (SP140L; GST-tagged SP140L, histone peptide array) was 0.3281 and the “Array Heatmap signal, TAF3” value (TAF3; GST-tagged TAF3, histone peptide array) was 0.2624. For the same substance, the “Array Heatmap signal, TRIM66 (PB)” value (TRIM66 (PB); GST-tagged TRIM66 (PB = PHD + Bromodomain), histone peptide array) was 0.5934.

“H2A.Z K4ac + K8ac + K12ac (1-19) (N-ac): H2AZ 1-19 (Ac-AGGKAGKDSGKAKTKAVSR; not fully specified (residue 4); UniProt P0C0S5 2-20, looked up, fragment)” was tested, and the “Array Heatmap value” value (AIRE (PP)) was 0.5817, the “Array Heatmap value” value (BAZ2B) was 0.5346 and the “Array Heatmap value” value (BPTF (PB)) was 0.4048. For the same substance, the “Array Heatmap value” value (CHD4 (PPCC)) was 0.6197, the “Array Heatmap value” value (CHD5 (PCC)) was 0.8638 and the “Array Heatmap value” value (CHD5 (PPCC)) was 0.6452. For the same substance, the “Array Heatmap value” value (DIDO1) was 0.7683, the “Array Heatmap value” value (DPF2 (PPC2W2)) was 0.7519 and the “Array Heatmap value” value (ING1) was 0.5984. The “Array Heatmap value” value (ING2) was 0.6161, the “Array Heatmap value” value (ING3) was 0.5369 and the “Array Heatmap value” value (ING4) was 0.5392. The “Array Heatmap value” value (ING5) was 0.4262, the “Array Heatmap value” value (KDM4C (TTP)) was 0.565 and the “Array Heatmap value” value (KDM5A (1)) was 0.5365. The “Array Heatmap value” value (KDM5A (3)) was 0.4842, the “Array Heatmap value” value (KDM5B (1)) was 0.6584 and the “Array Heatmap value” value (KDM5B (3)) was 0.5225. For the same substance, the “Array Heatmap value” value (KDM7A) was 0.3929, the “Array Heatmap value” value (MLL5) was 0.5838 and the “Array Heatmap value” value (MORC3 (CW)) was 0.4285. The “Array Heatmap value” value (PHF13) was 0.6948, the “Array Heatmap value” value (PHF21A) was 0.5429 and the “Array Heatmap value” value (PHF23) was 0.5933. The “Array Heatmap value” value (PHF2) was 0.5309, the “Array Heatmap value” value (PHF8) was 0.4227 and the “Array Heatmap value” value (PHRF1 (RP)) was 0.5134. The “Array Heatmap value” value (RAG2) was 0.271, the “Array Heatmap value” value (SP140L) was 0.395 and the “Array Heatmap value” value (TAF3) was 0.3233. The “Array Heatmap value” value (TRIM66 (PB)) was 0.6947.
